Data as given in article PMC12073402, “A Selective MAP3K1 Inhibitor Facilitates Discovery of NPM1 as a Member of the Network” (Molecules, 2025).

Tests used:
Experiment in all cases: KiNativ kinome profiling in PANC-1 lysate
Type in all cases: binding
[1] = target: T1, MAP4K5 (Homo sapiens, UniProt Q9Y4K4)
T1 construct: endogenous in cells; host or cells: PANC-1 cell lysate
Procedure, shortened: (§1)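 PANC-1 lysates were incubated with 5 μM inhibitor or DMSO, then labeled with a desthiobiotin-ATP acyl-phosphate probe that biotinylates conserved kinase lysines. Tryptic peptides were streptavidin-enriched and quantified by LC-MS/MS, reported as % change in MS signal from duplicate treated and duplicate control samples.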

[2] = target: T2, QSK (Homo sapiens, UniProt Q9Y2K2); conditions: Lys1
T2 construct: endogenous in cells; host or cells: PANC-1 cell lysate
T2 sequence (Q9Y2K2 whole entry): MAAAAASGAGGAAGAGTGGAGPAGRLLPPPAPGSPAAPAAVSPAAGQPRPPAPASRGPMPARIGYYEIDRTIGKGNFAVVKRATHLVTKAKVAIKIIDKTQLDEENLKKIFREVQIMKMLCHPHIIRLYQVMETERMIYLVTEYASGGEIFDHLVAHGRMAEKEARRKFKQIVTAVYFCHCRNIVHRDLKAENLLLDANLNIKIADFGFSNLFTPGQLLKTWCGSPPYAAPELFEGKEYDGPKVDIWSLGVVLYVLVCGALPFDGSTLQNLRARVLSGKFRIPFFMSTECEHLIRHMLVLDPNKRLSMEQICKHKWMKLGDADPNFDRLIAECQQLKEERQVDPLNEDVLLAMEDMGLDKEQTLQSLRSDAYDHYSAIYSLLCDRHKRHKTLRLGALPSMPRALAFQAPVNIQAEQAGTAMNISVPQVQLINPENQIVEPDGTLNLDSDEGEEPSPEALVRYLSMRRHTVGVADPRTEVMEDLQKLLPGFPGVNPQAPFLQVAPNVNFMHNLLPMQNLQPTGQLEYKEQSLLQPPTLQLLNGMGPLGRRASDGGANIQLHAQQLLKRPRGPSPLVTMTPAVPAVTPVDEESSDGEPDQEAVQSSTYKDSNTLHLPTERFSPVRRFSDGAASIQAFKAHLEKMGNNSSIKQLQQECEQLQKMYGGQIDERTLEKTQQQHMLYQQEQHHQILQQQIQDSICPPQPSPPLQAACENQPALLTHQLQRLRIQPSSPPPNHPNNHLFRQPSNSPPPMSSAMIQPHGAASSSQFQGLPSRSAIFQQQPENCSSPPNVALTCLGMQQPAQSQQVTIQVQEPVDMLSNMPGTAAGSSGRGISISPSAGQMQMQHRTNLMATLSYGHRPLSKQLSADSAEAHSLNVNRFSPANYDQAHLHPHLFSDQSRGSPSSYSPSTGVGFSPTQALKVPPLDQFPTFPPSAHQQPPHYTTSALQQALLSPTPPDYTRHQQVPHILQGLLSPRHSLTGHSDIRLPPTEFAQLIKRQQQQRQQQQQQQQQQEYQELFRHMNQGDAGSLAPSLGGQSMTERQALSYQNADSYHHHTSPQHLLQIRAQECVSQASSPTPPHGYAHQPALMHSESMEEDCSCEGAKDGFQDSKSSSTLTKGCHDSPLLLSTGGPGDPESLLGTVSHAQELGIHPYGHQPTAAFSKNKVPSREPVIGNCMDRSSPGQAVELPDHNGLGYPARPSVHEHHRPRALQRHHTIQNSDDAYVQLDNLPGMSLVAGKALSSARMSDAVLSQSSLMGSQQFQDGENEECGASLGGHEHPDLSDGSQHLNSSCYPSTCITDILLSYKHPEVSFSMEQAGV
Procedure, shortened: as §1

[3] = target: T3, MST1 (Homo sapiens, UniProt Q13043); conditions: Lys1
T3 construct: endogenous in cells; host or cells: PANC-1
Procedure, shortened: as §1

[4] = system: BRAF, RAF1; conditions: 5 µM; Activation Loop; IGDFGLATVKSR
Procedure, shortened: as §1

[5] = target: T4, CHK2 (Homo sapiens, UniProt O96017)
T4 construct: endogenous in cells; host or cells: PANC-1 cell lysate
T4 sequence (O96017 whole entry): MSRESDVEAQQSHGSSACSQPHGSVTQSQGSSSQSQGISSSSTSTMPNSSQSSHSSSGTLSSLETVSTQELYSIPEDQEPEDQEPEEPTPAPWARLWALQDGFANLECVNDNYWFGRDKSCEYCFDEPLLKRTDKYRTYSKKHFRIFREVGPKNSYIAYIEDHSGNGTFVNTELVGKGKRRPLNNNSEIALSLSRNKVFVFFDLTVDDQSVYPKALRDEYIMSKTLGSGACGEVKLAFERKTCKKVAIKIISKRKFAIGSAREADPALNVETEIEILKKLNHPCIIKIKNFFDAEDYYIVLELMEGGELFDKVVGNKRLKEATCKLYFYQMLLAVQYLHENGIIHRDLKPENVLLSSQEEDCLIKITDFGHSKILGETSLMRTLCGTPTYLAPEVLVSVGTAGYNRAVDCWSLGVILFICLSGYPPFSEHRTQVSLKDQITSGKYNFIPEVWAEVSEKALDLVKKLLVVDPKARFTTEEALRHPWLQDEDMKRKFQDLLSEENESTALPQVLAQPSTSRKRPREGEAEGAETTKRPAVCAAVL
Procedure, shortened: as §1

[6] = target: T5, MAP2K1 (Homo sapiens, UniProt Q02750); conditions: Lys2
T5 construct: endogenous in cells; host or cells: PANC-1 cell lysate
Procedure, shortened: as §1

[7] = target: T6, MLK1 (Homo sapiens, UniProt P80192); conditions: Lys2
T6 construct: endogenous in cells; host or cells: PANC-1
T6 sequence (P80192 whole entry): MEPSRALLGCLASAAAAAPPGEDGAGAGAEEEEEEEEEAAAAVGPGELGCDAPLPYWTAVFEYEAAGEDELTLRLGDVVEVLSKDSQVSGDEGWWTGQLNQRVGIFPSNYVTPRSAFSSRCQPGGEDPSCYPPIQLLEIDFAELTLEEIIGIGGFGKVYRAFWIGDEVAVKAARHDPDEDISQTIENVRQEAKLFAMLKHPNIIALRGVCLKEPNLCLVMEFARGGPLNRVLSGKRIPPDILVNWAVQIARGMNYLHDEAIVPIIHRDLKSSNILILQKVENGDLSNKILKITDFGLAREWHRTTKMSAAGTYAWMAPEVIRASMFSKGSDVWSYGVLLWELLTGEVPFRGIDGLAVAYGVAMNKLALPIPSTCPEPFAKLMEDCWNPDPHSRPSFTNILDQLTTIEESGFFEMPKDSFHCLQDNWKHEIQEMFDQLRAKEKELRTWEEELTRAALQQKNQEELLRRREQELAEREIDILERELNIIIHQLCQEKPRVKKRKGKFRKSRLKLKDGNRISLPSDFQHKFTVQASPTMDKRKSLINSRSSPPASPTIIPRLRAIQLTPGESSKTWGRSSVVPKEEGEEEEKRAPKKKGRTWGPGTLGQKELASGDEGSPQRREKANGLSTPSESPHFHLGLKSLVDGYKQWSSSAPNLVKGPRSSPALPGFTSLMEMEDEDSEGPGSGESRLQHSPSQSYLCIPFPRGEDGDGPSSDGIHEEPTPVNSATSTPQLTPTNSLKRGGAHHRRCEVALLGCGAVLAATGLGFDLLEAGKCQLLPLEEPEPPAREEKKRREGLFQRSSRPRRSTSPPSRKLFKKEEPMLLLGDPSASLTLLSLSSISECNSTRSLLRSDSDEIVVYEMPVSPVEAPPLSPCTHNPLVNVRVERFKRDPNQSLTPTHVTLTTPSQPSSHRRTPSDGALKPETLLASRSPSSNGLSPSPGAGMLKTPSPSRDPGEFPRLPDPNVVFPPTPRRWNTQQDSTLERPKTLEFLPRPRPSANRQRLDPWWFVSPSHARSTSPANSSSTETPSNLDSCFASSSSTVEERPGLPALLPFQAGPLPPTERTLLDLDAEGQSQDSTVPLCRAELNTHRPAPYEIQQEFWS
Procedure, shortened: as §1

[8] = target: T7, CHK1 (Homo sapiens, UniProt O14757); conditions: Lys2
T7 construct: endogenous in cells; host or cells: PANC-1 cell lysate
T7 sequence (O14757 whole entry): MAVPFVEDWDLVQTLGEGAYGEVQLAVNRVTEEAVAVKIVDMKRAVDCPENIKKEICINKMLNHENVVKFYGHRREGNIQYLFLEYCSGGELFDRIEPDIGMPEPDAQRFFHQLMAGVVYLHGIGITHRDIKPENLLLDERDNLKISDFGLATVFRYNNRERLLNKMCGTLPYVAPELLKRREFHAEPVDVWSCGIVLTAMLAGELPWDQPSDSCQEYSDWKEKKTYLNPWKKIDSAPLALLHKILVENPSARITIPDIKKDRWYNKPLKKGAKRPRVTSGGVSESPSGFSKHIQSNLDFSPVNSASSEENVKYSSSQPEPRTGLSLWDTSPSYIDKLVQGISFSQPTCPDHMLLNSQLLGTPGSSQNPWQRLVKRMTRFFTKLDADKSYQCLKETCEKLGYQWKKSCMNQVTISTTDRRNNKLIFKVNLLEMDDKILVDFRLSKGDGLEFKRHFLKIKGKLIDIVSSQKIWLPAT
Procedure, shortened: as §1

[9] = target: T8, MAP3K2 (Homo sapiens, UniProt Q9Y2U5); conditions: Lys1
T8 construct: endogenous in cells; host or cells: PANC-1 cell lysate
Procedure, shortened: as §1

[10] = target: T9, CASK (Homo sapiens, UniProt O14936); conditions: Lys1
T9 construct: endogenous in cells; host or cells: PANC-1 cell lysate
Procedure, shortened: as §1

[11] = target: T10, PKD3 (Homo sapiens, UniProt O94806)
T10 construct: endogenous in cells; host or cells: PANC-1 cell lysate
T10 sequence (O94806 1-890): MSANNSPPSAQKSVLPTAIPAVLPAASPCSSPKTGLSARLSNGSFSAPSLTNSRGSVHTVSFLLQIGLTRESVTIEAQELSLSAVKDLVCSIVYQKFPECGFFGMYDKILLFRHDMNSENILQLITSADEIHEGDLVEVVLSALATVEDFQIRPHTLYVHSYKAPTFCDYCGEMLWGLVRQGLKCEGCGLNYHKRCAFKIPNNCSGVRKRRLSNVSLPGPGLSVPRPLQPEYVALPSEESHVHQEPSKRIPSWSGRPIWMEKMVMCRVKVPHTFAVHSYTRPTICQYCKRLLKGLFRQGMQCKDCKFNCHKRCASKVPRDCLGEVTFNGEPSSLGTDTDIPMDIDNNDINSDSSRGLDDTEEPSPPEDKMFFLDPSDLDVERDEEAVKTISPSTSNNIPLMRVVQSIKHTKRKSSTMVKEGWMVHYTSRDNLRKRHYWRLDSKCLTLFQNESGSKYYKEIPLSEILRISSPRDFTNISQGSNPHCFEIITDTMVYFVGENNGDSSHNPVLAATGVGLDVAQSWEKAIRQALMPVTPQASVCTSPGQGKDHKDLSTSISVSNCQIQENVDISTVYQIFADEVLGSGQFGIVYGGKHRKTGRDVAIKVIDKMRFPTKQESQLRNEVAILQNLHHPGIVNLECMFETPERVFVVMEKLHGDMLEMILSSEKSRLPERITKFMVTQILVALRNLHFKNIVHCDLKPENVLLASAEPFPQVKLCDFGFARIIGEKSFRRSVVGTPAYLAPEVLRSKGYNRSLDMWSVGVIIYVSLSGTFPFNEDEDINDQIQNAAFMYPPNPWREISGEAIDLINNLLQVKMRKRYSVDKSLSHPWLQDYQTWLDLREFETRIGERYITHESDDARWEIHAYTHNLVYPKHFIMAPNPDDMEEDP
Procedure, shortened: as §1

[12] = target: T11, HRI (Homo sapiens, UniProt Q9BQI3); conditions: ATP Loop
T11 construct: we opted to conduct a kinome screen (KiNativ) in PANC-1 cell lysates; endogenous in cells; host or cells: PANC-1 cell lysate
Procedure, shortened: as §1

[13] = target: T12, NEK3 (Homo sapiens, UniProt P51956); conditions: ATP Loop
T12 construct: endogenous in cells; host or cells: PANC-1 cell lysate
T12 sequence (P51956 whole entry): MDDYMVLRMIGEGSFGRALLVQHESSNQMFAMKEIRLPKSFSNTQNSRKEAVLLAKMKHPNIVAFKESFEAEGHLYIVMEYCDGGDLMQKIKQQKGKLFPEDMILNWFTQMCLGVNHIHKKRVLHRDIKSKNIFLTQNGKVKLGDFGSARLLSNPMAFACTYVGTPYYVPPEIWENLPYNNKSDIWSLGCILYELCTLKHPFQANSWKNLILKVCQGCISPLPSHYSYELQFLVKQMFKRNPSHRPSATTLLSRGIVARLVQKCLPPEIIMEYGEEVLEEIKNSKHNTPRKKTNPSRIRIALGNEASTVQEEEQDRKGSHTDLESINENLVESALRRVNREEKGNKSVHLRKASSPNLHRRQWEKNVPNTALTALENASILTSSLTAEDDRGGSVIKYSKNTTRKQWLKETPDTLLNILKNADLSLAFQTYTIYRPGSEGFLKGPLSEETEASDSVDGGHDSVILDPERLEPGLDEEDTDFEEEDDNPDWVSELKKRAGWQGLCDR
Procedure, shortened: as §1

[14] = target: T13, EphB4 (Homo sapiens, UniProt P54760); conditions: ATP Loop
T13 construct: endogenous in cells; host or cells: PANC-1 lysate
Procedure, shortened: as §1

[15] = target: T14, CaMK2d (Homo sapiens, UniProt Q13557); conditions: Lys1
T14 construct: endogenous in cells; host or cells: PANC-1 cell lysate
Procedure, shortened: as §1

[16] = system: NEK6, NEK7; conditions: 5 µM; Lys2; DIKPANVFITATGVVK
Procedure, shortened: as §1

T1 sequence (Q9Y4K4 whole entry): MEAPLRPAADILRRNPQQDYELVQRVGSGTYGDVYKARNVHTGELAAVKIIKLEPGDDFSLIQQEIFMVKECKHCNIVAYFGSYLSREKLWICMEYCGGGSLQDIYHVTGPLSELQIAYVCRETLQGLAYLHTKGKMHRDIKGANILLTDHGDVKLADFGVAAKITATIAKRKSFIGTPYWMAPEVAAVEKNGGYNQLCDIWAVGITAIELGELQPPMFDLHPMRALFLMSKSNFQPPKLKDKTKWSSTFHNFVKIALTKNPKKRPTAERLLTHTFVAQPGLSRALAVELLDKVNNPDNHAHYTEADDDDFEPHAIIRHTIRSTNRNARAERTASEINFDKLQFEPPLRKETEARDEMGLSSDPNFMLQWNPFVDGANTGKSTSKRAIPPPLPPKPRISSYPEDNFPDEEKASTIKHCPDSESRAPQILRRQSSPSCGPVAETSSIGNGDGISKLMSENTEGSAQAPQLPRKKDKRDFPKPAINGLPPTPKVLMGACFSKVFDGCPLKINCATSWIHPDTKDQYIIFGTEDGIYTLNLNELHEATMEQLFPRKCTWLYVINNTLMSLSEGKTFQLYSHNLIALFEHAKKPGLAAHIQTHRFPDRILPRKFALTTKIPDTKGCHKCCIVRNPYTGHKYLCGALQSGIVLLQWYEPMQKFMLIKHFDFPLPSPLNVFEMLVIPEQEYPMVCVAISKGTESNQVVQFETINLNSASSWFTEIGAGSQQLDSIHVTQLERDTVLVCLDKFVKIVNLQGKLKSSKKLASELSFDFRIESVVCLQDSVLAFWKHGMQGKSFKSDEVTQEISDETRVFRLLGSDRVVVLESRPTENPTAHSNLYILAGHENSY

Structure (SMILES): Cn1cc(-c2cnc3ccc(NC(=O)Nc4ccc(F)c(C(F)(F)F)c4)cc3n2)cn1 [51-106, 1-(4-Fluoro-3-(trifluoromethyl)phenyl)-3-(3-(1-methyl-1H-pyrazol-4-yl)quinoxalin-6-yl)urea]
- inhibition at 5 µM ([1]; Lys1, NVHTGELAAVKIIK): 6%
- inhibition at 5 µM ([1]; Lys2, DIKGANILLTDHGDVK): ≤ 0%
- inhibition at 5 µM [2]: ≤ 0%
- inhibition at 5 µM [3]: ≤ 0%
- % Inhibition [4]: 12.7%
- inhibition at 5 µM ([5]; Lys1, VAIKIISK): 14.8%
- inhibition at 5 µM ([5]; Lys2, DLKPENVLLSSQEEDCLIK): ≤ 0%
- inhibition at 5 µM [6]: 11%
- inhibition at 5 µM [7]: 1.5%
- inhibition at 5 µM [8]: ≤ 0%
- inhibition at 5 µM [9]: ≤ 0%
- inhibition at 5 µM [10]: ≤ 0%
- % Inhibition ([11]; 5 µM, Lys1, DVAIKVIDK): 27.0%
- inhibition at 5 µM ([11]; Lys1, DVAIKVIDK): 27%
- inhibition at 5 µM ([11]; Lys2, NIVHCDLKPENVLLASAEPFPQVK): ≤ 0%
- inhibition at 5 µM [12]: ≤ 0%
- inhibition at 5 µM [13]: 5.1%
- inhibition at 5 µM [14]: 1.6%
- inhibition at 5 µM [15]: ≤ 0%
- % Inhibition [16]: 24.8%
